According to patent US20190183910A1, “ENHANCING DNA REPAIR AND PREVENTING AGING AND ITS CONSEQUENCES IN REPRODUCTIVE AND OTHER CELLS” (NEW YORK MEDICAL COLLEGE, priority 2016, published 2019):
“And” between values parts separate entries of the source, which are not always exact repeats. Identical values can stand only once.

Legend:
BRCA1 = assay: qRT-PCR DNA DSB repair gene expression in mouse sperm lysates, BRCA1; type: cell-based
Description: Treatment was performed with genotoxic stress (1 mM H2O2), S1P (200 μM), and S1P with genotoxic stress and control in culture for one hour. Also, the use of an ATM inhibitor was utilized (10 μM) (KU-55593, Abcam) (Li et al., 2014). We assessed DNA damage, apoptosis, and chromatin integrity. We also studied the DNA DSB repair gene expression by qRT-PCR in sperm lysates.
Sperm pellets previously snap-frozen in PBS were thawed. RNA was extracted using the trizol method (Rio et al., 2010). The quality and quantity of the RNA were measured with NanoDrop 2000 from Thermo Scientific. RNA (2 μg) from each sample was taken for reverse transcription with dTVN and N9 primers and SuperScript III reverse transcriptase, all procured from Invitrogen. The resulting cDNA was used to perform real-time qPCR with SYBR Green on an Applied Biosystems 7900HT Real-Time PCR machine was used. To determine the relative expression of various DNA repair genes in mouse sperm, we used the ΔΔCt method, which makes use of the expression of housekeeping genes. GAPDH was used as housekeeping gene. Primers were procured from Integrated DNA technologies (IDT) (Table 3).

human sperm = assay: Alkaline comet assay on human sperm; type: cell-based; details: n=3, mean±SEM

Q: What does the source list for `CCCCCCCCCCCCC/C=C/[C@@H](O)[C@@H](N)COP(=O)(O)O` [S1P, sphingosine 1 phosphate]?
A: BRCA1 expression (qRT-PCR) (BRCA1; S1P alone, n=9, mean±SEM): 0.471±0.602; BRCA1 expression (qRT-PCR) (BRCA1; S1P in the presence of genotoxic stress, n=9, mean±SEM): 0.755±0.378; BRCA1 expression (qRT-PCR) (BRCA1; S1P treatment with ATM inhibitor): blocked the S1P induced increase; percent tail DNA, alkaline comet (human sperm; S1P with H2O2, with ATM inhibitor): 26.1±1.19%; percent tail DNA, alkaline comet (human sperm; S1P with H2O2, without ATM inhibitor): 13.2±0.51% and 13.2±1.25%
